Tests used:
[1] = molecular target: T1, γ-secretase (Homo sapiens, UniProt P49768); assay: Screening for γ-secretase-modulating activity: Aβtotal in supernatant of SKNBE2 cells carrying hAPP 695 wild type (Alphalisa); format: cell-based; details: SKNBE2 human neuroblastoma cells carrying hAPP 695 wild type, overnight incubation, Aβtotal in cell supernatant
T1 construct: endogenous in cells; host or cells: SKNBE2 human neuroblastoma cells (carrying hAPP 695 wild type as substrate)
Protocol: (§1) Screening was carried out using SKNBE2 human neuroblastoma cells carrying the hAPP 695—wild type, grown in Dulbecco's Modified Eagle's Medium/Nutrient mixture F-12 (DMEM/NUT-mix F-12) (HAM) provided by Invitrogen (cat no. 10371-029) containing 5% Serum/Fe supplemented with 1% non-essential amino acids, 1-glutamine 2 mM, Hepes 15 mM, penicillin 50 U/ml (units/ml) en streptomycin 50 μg/ml. Cells were grown to near confluency.
(§2) The screening was performed using a modification of the assay as described in Citron et al (1997) Nature Medicine 3: 67. Briefly, cells were plated in a 384-well plate at 10^4 cells/well in Ultraculture (Lonza, BE12-725F) supplemented with 1% glutamine (Invitrogen, 25030-024), 1% non-essential amino acid (NEAA), penicillin 50 U/ml en streptomycin 50 μg/ml in the presence of test compound at different test concentrations. The cell/compound mixture was incubated overnight at 37° C., 5% CO2. The next day the media were assayed by two sandwich immuno-assays, for Aβ42 and Aβ total.
(§3) Aβtotal and Aβ42 concentrations were quantified in the cell supernatant using the Aphalisa technology (Perkin Elmer). Alphalisa is a sandwich assay using biotinylated antibody attached to streptavidin coated donorbeads and antibody conjugated to acceptor beads. In the presence of antigen, the beads come into close proximity. The excitation of the donor beads provokes the release of singlet oxygen molecules that trigger a cascade of energy transfer in the acceptor beads, resulting in light emission. To quantify the amount of Aβ42 in the cell supernatant, monoclonal antibody specific to the C-terminus of Aβ42 (JRF/cAβ42/26) was coupled to the receptor beads and biotinylated antibody specific to the N-terminus of Aβ (JRF/AβN/25) was used to react with the donor beads. To quantify the amount of Aβtotal in the cell supernatant, monoclonal antibody specific to the N-terminus of Aβ (JRF/AβN/25) was coupled to the receptor beads and biotinylated antibody specific to the mid region of Aβ (biotinylated 4G8) was used to react with the donor beads.
(§4) To obtain the values reported in Table 3, the data are calculated as percentage of the maximum amount of amyloid Beta 42 measured in the absence of the test compound. The sigmoidal dose response curves were analyzed using non-linear regression analysis with percentage of the control plotted against the log concentration of the compound. A 4-parameter equation was used to determine the IC50.

[2] = molecular target: T1, γ-secretase; assay: Screening for γ-secretase-modulating activity: Aβ42 in supernatant of SKNBE2 cells carrying hAPP 695 wild type (Alphalisa); format: cell-based; details: SKNBE2 human neuroblastoma cells carrying hAPP 695 wild type, overnight incubation, Aβ42 in cell supernatant
Protocol: as §1, §2, §3, §4

Cc1cn(-c2ccc3n(c2=O)C[C@@H](C)N(C(C)c2cc(C(F)(F)F)cc(C(F)(F)F)c2)C3=O)cn1 (mixture of isomers) [compound 154]
IC50 [1]: > 10000 nM | IC50 [2]: 50 nM

Cc1cn(-c2ccc3n(c2=O)CCN(C(C)c2cccc(Cl)c2Cl)C3=O)cn1 (racemic) [compound 10]
IC50 [1]: > 10000 nM | IC50 [2]: 220 nM

Cc1cn(-c2ccc3n(c2=O)CCN(C(c2ccccc2)c2cc(C(F)(F)F)cc(C(F)(F)F)c2)C3=O)cn1 (racemic) [compound 52]
IC50 [1]: > 10000 nM | IC50 [2]: 980 nM

Cc1cn(-c2ccc3n(c2=O)C(C)C(C)N(Cc2cc(C(F)(F)F)cc(C(F)(F)F)c2)C3=O)cn1 (single isomer, unassigned) [14a]
IC50 [1]: > 10000 nM | IC50 [2]: 1780 nM

Cc1cn(-c2ccc3n(c2=O)C(C)C(C)N(Cc2cc(C(F)(F)F)cc(C(F)(F)F)c2)C3=O)cn1 (single isomer, unassigned) [14b]
IC50 [1]: > 10000 nM | IC50 [2]: 650 nM

Cc1cn(-c2ccc3n(c2=O)C[C@@H](C)N(C(C)c2cc(CC4CC4)cc(C(F)(F)F)c2)C3=O)cn1 (single isomer, unassigned) [compound 135]
IC50 [1]: > 10000 nM | IC50 [2]: 20 nM

Cc1cn(-c2ccc3n(c2=O)C[C@@H](C)N(C(C)c2cc(CC4CC4)cc(C(F)(F)F)c2)C3=O)cn1 (single isomer, unassigned) [compound 136]
IC50 [1]: > 10000 nM | IC50 [2]: 40 nM

CCC(c1cc(OC)cc(C(F)(F)F)c1)N1C(=O)c2ccc(-n3cnc(C)c3)c(=O)n2C[C@H]1C (single isomer, unassigned) [compound 142]
IC50 [1]: > 10000 nM | IC50 [2]: 210 nM

CCOc1cc(C(C)N2C(=O)c3ccc(-n4cnc(C)c4)c(=O)n3C[C@H]2C)cc(C(F)(F)F)c1 (single isomer, unassigned) [compound 144]
IC50 [1]: > 10000 nM | IC50 [2]: 130 nM

Cc1cn(-c2ccc3n(c2=O)C[C@@H](C)N(C(C)c2cccc(OC(F)(F)F)c2)C3=O)cn1 (single isomer, unassigned) [compound 146]
IC50 [1]: > 10000 nM | IC50 [2]: 150 nM

Cc1cn(-c2ccc3n(c2=O)C[C@@H](C)N(C(C)c2cccc(OC(F)(F)F)c2)C3=O)cn1 (single isomer, unassigned) [compound 147]
IC50 [1]: > 10000 nM | IC50 [2]: 330 nM

COc1cc(C(C)N2C(=O)c3ccc(-n4cnc(C)c4)c(=O)n3C[C@H]2C)cc(C(F)(F)F)c1 (single isomer, unassigned) [compound 148]
IC50 [1]: > 10000 nM | IC50 [2]: 140 nM

COc1cc(C(C)N2C(=O)c3ccc(-n4cnc(C)c4)c(=O)n3C[C@H]2C)cc(C(F)(F)F)c1 (single isomer, unassigned) [compound 149]
IC50 [1]: > 10000 nM | IC50 [2]: 300 nM

Cc1cn(-c2ccc3n(c2=O)CCN(C(C)c2c[nH]c4cc(F)c(Cl)cc24)C3=O)cn1 (single isomer, unassigned) [compound 184]
IC50 [1]: 9120 nM | IC50 [2]: 650 nM

Cc1cn(-c2ccc3n(c2=O)CC(C)N(C(C)c2c[nH]c4cc(F)c(Cl)cc24)C3=O)cn1 (single isomer, unassigned) [compound 187]
IC50 [1]: 6920 nM | IC50 [2]: 190 nM

Cc1cn(-c2ccc3n(c2=O)CC(C)N(C(C)c2c[nH]c4cc(F)c(Cl)cc24)C3=O)cn1 (single isomer, unassigned) [compound 188]
IC50 [1]: 4570 nM | IC50 [2]: 10 nM

CCn1cc(C(C)N2C(=O)c3ccc(-n4cnc(C)c4)c(=O)n3CC2C)c2cc(Cl)c(F)cc21 (single isomer, unassigned) [compound 191]
IC50 [1]: > 10000 nM | IC50 [2]: 200 nM

Cc1cn(-c2ccc3n(c2=O)CC(C)N(C(C)c2cn(C(C)C)c4cc(F)c(Cl)cc24)C3=O)cn1 (single isomer, unassigned) [compound 193]
IC50 [1]: > 10000 nM | IC50 [2]: 200 nM

Cc1cn(-c2ccc3n(c2=O)CC(C)N(C2Cc4ccccc4C2)C3=O)cn1 (single isomer, unassigned) [compound 206]
IC50 [1]: > 10000 nM | IC50 [2]: > 10000 nM

Cc1cn(-c2ccc3n(c2=O)CCN(C(C)c2cc(Cl)cc(Cl)c2)C3=O)cn1 (single isomer, unassigned) [compound 209]
IC50 [1]: > 10000 nM | IC50 [2]: 380 nM

Cc1cn(-c2ccc3n(c2=O)C[C@@H](C)N(C(C)c2cc(Cl)cc(Cl)c2)C3=O)cn1 (single isomer, unassigned) [compound 210]
IC50 [1]: > 10000 nM | IC50 [2]: 260 nM

Cc1cn(-c2ccc3n(c2=O)CC(C)N(C(C)c2cn(C)c4ccc(C(F)(F)F)cc24)C3=O)cn1 (single isomer, unassigned) [compound 214]
IC50 [1]: 6460 nM | IC50 [2]: 240 nM

Cc1cn(-c2ccc3n(c2=O)CC(C)N(C(C)c2cn(C)c4ccc(C(F)(F)F)cc24)C3=O)cn1 (single isomer, unassigned) [compound 215]
IC50 [1]: 1440 nM | IC50 [2]: 10 nM

CCn1cc(C(C)N2C(=O)c3ccc(-n4cnc(C)c4)c(=O)n3CC2C)c2cc(C(F)(F)F)ccc21 (single isomer, unassigned) [compound 216]
IC50 [1]: 6460 nM | IC50 [2]: 120 nM

CCn1cc(C(C)N2C(=O)c3ccc(-n4cnc(C)c4)c(=O)n3CC2C)c2cc(C(F)(F)F)ccc21 (single isomer, unassigned) [compound 217]
IC50 [1]: 480 nM | IC50 [2]: 3 nM

Cc1cn(-c2ccc3n(c2=O)CC(C)N(C(C)c2c[nH]c4c(F)cc(Cl)cc24)C3=O)cn1 (single isomer, unassigned) [compound 218]
IC50 [1]: 3800 nM | IC50 [2]: 140 nM

CCn1cc(C(C)N2C(=O)c3ccc(-n4cnc(C)c4)c(=O)n3CC2C)c2cc(Cl)cc(F)c21 (single isomer, unassigned) [compound 220]
IC50 [1]: 6030 nM | IC50 [2]: 170 nM

Cc1cn(-c2ccc3n(c2=O)CC(C)N(C(C)c2cn(C)c4c(F)cc(Cl)cc24)C3=O)cn1 (single isomer, unassigned) [compound 224]
IC50 [1]: 1860 nM | IC50 [2]: 10 nM

CCn1cc(C(C)N2C(=O)c3ccc(-n4cnc(C)c4)c(=O)n3C[C@H]2C)c2ccc(C(F)(F)F)cc21 (single isomer, unassigned) [compound 235]
IC50 [1]: 6000 nM | IC50 [2]: 10 nM

CCn1cc(C(C)N2C(=O)c3ccc(-n4cnc(C)c4)c(=O)n3CC2C)c2cc(Cl)ccc21 (single isomer, unassigned) [compound 243]
IC50 [1]: 2000 nM | IC50 [2]: 10 nM

CCn1cc(C(C)N2C(=O)c3ccc(-n4cnc(C)c4)c(=O)n3C[C@H]2C)c2ccc(C(F)(F)F)cc21 (single isomer, unassigned) [compound 244]
IC50 [1]: > 10000 nM | IC50 [2]: 370 nM

Cc1cn(-c2ccc3n(c2=O)C[C@@H](C)N(C(C)c2cn(C4CC4)c4cc(F)c(Cl)cc24)C3=O)cn1 (single isomer, unassigned) [compound 248]
IC50 [1]: 1000 nM | IC50 [2]: 8 nM

CCn1cc(C(C)N2C(=O)c3ccc(-n4cnc(C)c4)c(=O)n3CC2C)c2cc(Cl)ccc21 (single isomer, unassigned) [compound 249]
IC50 [1]: 8000 nM | IC50 [2]: 490 nM

COc1cc2c(cc1Cl)c(C(C)N1C(=O)c3ccc(-n4cnc(C)c4)c(=O)n3C[C@H]1C)cn2C (single isomer, unassigned) [compound 256]
IC50 [1]: 4000 nM | IC50 [2]: 40 nM

Cc1cn(-c2ccc3n(c2=O)CC(C)N(Cc2ccc(C)c(N4CCCCC4)c2)C3=O)cn1 (stereo not drawn) [compound 4]
IC50 [1]: > 10000 nM | IC50 [2]: 80 nM

CCc1cn(-c2ccc3n(c2=O)CC(CN(C)C)N(Cc2cc(C(F)(F)F)cc(C(F)(F)F)c2)C3=O)cn1 (stereo not drawn) [compound 8]
IC50 [1]: > 10000 nM | IC50 [2]: 930 nM
